Data as given in ChEMBL document CHEMBL3885861, “Open TG-GATES”.

Species: Rattus norvegicus
Experiment: Open TG-GATES - Regimen: Daily Repeat
Type: toxicity, organism-based, Sprague-Dawley
Set-up: regimen Daily Repeat, gender Male, age 6 weeks
Conditions: in vivo, po, 15 mg/kg, route gavage, dose level Low; for APTT / Bas / Eos / Fbg / Hb / Ht / Lym / MCH / MCHC / MCV / Mono / Neu / PT / Plat / RBC / Ret / WBC: tissue Blood; for KIDNEY_L / KIDNEY_R / KIDNEY_TOTAL: tissue Kidney; for LIVER: tissue Liver; for A/G / ALP / ALT / AST / BUN / CRE / Ca / Cl / DBIL / GLC / IP / K / LDH / Na / PL / RALB / TBIL / TC / TG / TP / gamma-GTP: tissue Plasma

Compound: Nc1nc(N)c2nc(-c3ccccc3)c(N)nc2n1
- TERMINAL_BW (72 h, time 3 day): 248.4 g
- APTT (72 h, time 3 day): 16.1 s
- Bas (72 h, time 3 day): 0.2%
- Eos (72 h, time 3 day): 0.6%
- Fbg (72 h, time 3 day): 310.8 mg/dL
- Hb (72 h, time 3 day): 14.1 g/dL
- Ht (72 h, time 3 day): 41.7%
- Lym (72 h, time 3 day): 78.4%
- MCH (72 h, time 3 day): 21.8 pg
- MCHC (72 h, time 3 day): 33.8%
- MCV (72 h, time 3 day): 64.7 fL
- Mono (72 h, time 3 day): 2.2%
- Neu (72 h, time 3 day): 18.2%
- PT (72 h, time 3 day): 13.8 s
- Plat (72 h, time 3 day): 132.9 x10_4/uL
- RBC (72 h, time 3 day): 645.4 x10_4/ul
- Ret (72 h, time 3 day): 6.8%
- WBC (72 h, time 3 day): 109.4 x10_2/uL
- KIDNEY_L (72 h, time 3 day): 1.1 g
- KIDNEY_R (72 h, time 3 day): 1 g
- KIDNEY_TOTAL (72 h, time 3 day): 2.1 g
- LIVER (72 h, time 3 day): 11.6 g
- A/G (72 h, time 3 day): 0.9
- ALP (72 h, time 3 day): 1861.8 IU/L
- ALT (72 h, time 3 day): 41.4 IU/L
- AST (72 h, time 3 day): 66 IU/L
- BUN (72 h, time 3 day): 14.8 mg/dL
- CRE (72 h, time 3 day): 0.2 mg/dL
- Ca (72 h, time 3 day): 11 mg/dL
- Cl (72 h, time 3 day): 105.4 meq/L
- DBIL (72 h, time 3 day): 0.01 mg/dL
- GLC (72 h, time 3 day): 175.2 mg/dL
- IP (72 h, time 3 day): 7.8 mg/dL
- K (72 h, time 3 day): 3.8 meq/L
- LDH (72 h, time 3 day): 67.2 IU/L
- Na (72 h, time 3 day): 142.8 meq/L
- PL (72 h, time 3 day): 159.4 mg/dL
- RALB (72 h, time 3 day): 2.6 g/dL
- TBIL (72 h, time 3 day): 0.042 mg/dL
- TC (72 h, time 3 day): 81.4 mg/dL
- TG (72 h, time 3 day): 115 mg/dL
- TP (72 h, time 3 day): 5.6 g/dL
- gamma-GTP (72 h, time 3 day): 1.2 IU/L
- TERMINAL_BW ([…], time 7 day): 282.4 g
- TERMINAL_BW ([…], time 14 day): 340.6 g
- TERMINAL_BW ([…], time 28 day): 410.6 g
- APTT ([…], time 7 day): 16.7 s
- Bas ([…], time 7 day): 0%
- Eos ([…], time 7 day): 1%
- Fbg ([…], time 7 day): 313.2 mg/dL
- Hb ([…], time 7 day): 13.7 g/dL
- Ht ([…], time 7 day): 42.1%
- Lym ([…], time 7 day): 77.2%
- MCH ([…], time 7 day): 20.1 pg
- MCHC ([…], time 7 day): 32.4%
- MCV ([…], time 7 day): 61.9 fL
- Mono ([…], time 7 day): 2.4%
- Neu ([…], time 7 day): 19.2%
- PT ([…], time 7 day): 13.9 s
- Plat ([…], time 7 day): 123.2 x10_4/uL
- RBC ([…], time 7 day): 679.2 x10_4/ul
- Ret ([…], time 7 day): 5.5%
- WBC ([…], time 7 day): 88.7 x10_2/uL
- APTT ([…], time 14 day): 18 s
- Bas ([…], time 14 day): 0%
- Eos ([…], time 14 day): 1%
- Fbg ([…], time 14 day): 295.2 mg/dL
- Hb ([…], time 14 day): 14.5 g/dL
- Ht ([…], time 14 day): 44.4%
- Lym ([…], time 14 day): 79.2%
- MCH ([…], time 14 day): 20.2 pg
- MCHC ([…], time 14 day): 32.7%
- MCV ([…], time 14 day): 61.6 fL
- Mono ([…], time 14 day): 2.2%
- Neu ([…], time 14 day): 17.2%
- PT ([…], time 14 day): 13.1 s
- Plat ([…], time 14 day): 114.4 x10_4/uL
- RBC ([…], time 14 day): 720.6 x10_4/ul
- Ret ([…], time 14 day): 4.2%
- WBC ([…], time 14 day): 94.6 x10_2/uL
- APTT ([…], time 28 day): 18.6 s
- Bas ([…], time 28 day): 0.2%
- Eos ([…], time 28 day): 1.2%
- Fbg ([…], time 28 day): 294.8 mg/dL
- Hb ([…], time 28 day): 15.6 g/dL
- Ht ([…], time 28 day): 46.4%
- Lym ([…], time 28 day): 78.6%
- MCH ([…], time 28 day): 18.9 pg
- MCHC ([…], time 28 day): 33.6%
- MCV ([…], time 28 day): 56.3 fL
- Mono ([…], time 28 day): 1.8%
- Neu ([…], time 28 day): 17.6%
- PT ([…], time 28 day): 13.4 s
- Plat ([…], time 28 day): 111.2 x10_4/uL
- RBC ([…], time 28 day): 825 x10_4/ul
- Ret ([…], time 28 day): 2.1%
- WBC ([…], time 28 day): 89.6 x10_2/uL
- KIDNEY_L ([…], time 7 day): 1.2 g
- KIDNEY_R ([…], time 7 day): 1.1 g
- KIDNEY_TOTAL ([…], time 7 day): 2.3 g
- KIDNEY_L ([…], time 14 day): 1.3 g
- KIDNEY_R ([…], time 14 day): 1.2 g
- KIDNEY_TOTAL ([…], time 14 day): 2.5 g
- KIDNEY_L ([…], time 28 day): 1.4 g
- KIDNEY_R ([…], time 28 day): 1.4 g
- KIDNEY_TOTAL ([…], time 28 day): 2.8 g
- LIVER ([…], time 7 day): 13.1 g
- LIVER ([…], time 14 day): 14.6 g
- LIVER ([…], time 28 day): 15.5 g
- A/G ([…], time 7 day): 0.8
- ALP ([…], time 7 day): 1439.8 IU/L
- ALT ([…], time 7 day): 39.8 IU/L
- AST ([…], time 7 day): 62.6 IU/L
- BUN ([…], time 7 day): 14.8 mg/dL
- CRE ([…], time 7 day): 0.2 mg/dL
- Ca ([…], time 7 day): 11 mg/dL
- Cl ([…], time 7 day): 104.6 meq/L
- DBIL ([…], time 7 day): 0.016 mg/dL
- GLC ([…], time 7 day): 185 mg/dL
- IP ([…], time 7 day): 7.9 mg/dL
- K ([…], time 7 day): 4 meq/L
- LDH ([…], time 7 day): 60.4 IU/L
- Na ([…], time 7 day): 143.4 meq/L
- PL ([…], time 7 day): 155.6 mg/dL
- RALB ([…], time 7 day): 2.6 g/dL
- TBIL ([…], time 7 day): 0.074 mg/dL
- TC ([…], time 7 day): 75.2 mg/dL
- TG ([…], time 7 day): 137 mg/dL
- TP ([…], time 7 day): 5.7 g/dL
- gamma-GTP ([…], time 7 day): 1.2 IU/L
- A/G ([…], time 14 day): 0.9
- ALP ([…], time 14 day): 1252.8 IU/L
- ALT ([…], time 14 day): 40.2 IU/L
- AST ([…], time 14 day): 62.6 IU/L
- BUN ([…], time 14 day): 16.2 mg/dL
- CRE ([…], time 14 day): 0.2 mg/dL
- Ca ([…], time 14 day): 10.4 mg/dL
- Cl ([…], time 14 day): 105 meq/L
- DBIL ([…], time 14 day): 0.012 mg/dL
- GLC ([…], time 14 day): 180.2 mg/dL
- IP ([…], time 14 day): 7.5 mg/dL
- K ([…], time 14 day): 3.8 meq/L
- LDH ([…], time 14 day): 58 IU/L
- Na ([…], time 14 day): 143.4 meq/L
- PL ([…], time 14 day): 141.6 mg/dL
- RALB ([…], time 14 day): 2.7 g/dL
- TBIL ([…], time 14 day): 0.068 mg/dL
- TC ([…], time 14 day): 67.4 mg/dL
- TG ([…], time 14 day): 111.6 mg/dL
- TP ([…], time 14 day): 5.8 g/dL
- gamma-GTP ([…], time 14 day): 1 IU/L
- A/G ([…], time 28 day): 0.8
- ALP ([…], time 28 day): 1186.2 IU/L
- ALT ([…], time 28 day): 35.6 IU/L
- AST ([…], time 28 day): 63.4 IU/L
- BUN ([…], time 28 day): 16.2 mg/dL
- CRE ([…], time 28 day): 0.3 mg/dL
- Ca ([…], time 28 day): 10.7 mg/dL
- Cl ([…], time 28 day): 104.6 meq/L
- DBIL ([…], time 28 day): 0.01 mg/dL
- GLC ([…], time 28 day): 187.6 mg/dL
- IP ([…], time 28 day): 6.6 mg/dL
- K ([…], time 28 day): 3.9 meq/L
- LDH ([…], time 28 day): 54.4 IU/L
- Na ([…], time 28 day): 143 meq/L
- PL ([…], time 28 day): 140.4 mg/dL
- RALB ([…], time 28 day): 2.7 g/dL
- TBIL ([…], time 28 day): 0.06 mg/dL
- TC ([…], time 28 day): 69.6 mg/dL
- TG ([…], time 28 day): 123 mg/dL
- TP ([…], time 28 day): 6 g/dL
- gamma-GTP ([…], time 28 day): 1 IU/L
